In the supplement of paper PMC11061612:

Experiments:
Test in all cases: combination Emax (second highest fraction inhibited in the dose matrix, 72 h); higher = more inhibition; extreme values may be limits of the assay
BE2-M17 (Neuroblastoma) = system: BE2-M17 (Neuroblastoma)
How it was run: (§1)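 Bliss excess equals the observed combination effect minus the expected value EA + EB − EA·EB, where EA and EB are the effects of each agent alone. Combination Emax is the second-highest inhibition within the matrix. Inhibition was scaled from CellTiter-Glo 2.0 luminescence, with 0 set by vehicle wells and 1 by blank wells, after 72 hours of two-drug dosing of cells plated in 1536-well plates.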

BPH-1 (Non-Cancerous) = system: BPH-1 (Non-Cancerous)
How it was run: as §1

[1] = system: CAL-33 (Oral Cavity Carcinoma)
How it was run: as §1

[2] = system: Detroit562 (Head and Neck Carcinoma)
How it was run: as §1

[3] = system: HH (T-Cell Non-Hodgkin's Lymphoma)
How it was run: as §1

[4] = system: HeLa (Cervical Carcinoma)
How it was run: as §1

[5] = system: HuH-7 (Hepatocellular Carcinoma)
How it was run: as §1

[6] = system: LNZTA3WT4 (Low Grade Glioma)
How it was run: as §1

LOXIMVI (Melanoma) = system: LOXIMVI (Melanoma)
How it was run: as §1

[7] = system: MHH-CALL-2 (B-Lymphoblastic Leukemia)
How it was run: as §1

MPP-89 (Mesothelioma) = system: MPP-89 (Mesothelioma)
How it was run: as §1

[8] = system: NCI-H1568 (Lung Adenocarcinoma)
How it was run: as §1

NCI-H2722 (Mesothelioma) = system: NCI-H2722 (Mesothelioma)
How it was run: as §1

[9] = system: NCI-H524 (Small Cell Lung Carcinoma)
How it was run: as §1

[10] = system: OV-56 (Ovarian Carcinoma)
How it was run: as §1

[11] = system: OVCAR-5 (Ovarian Carcinoma)
How it was run: as §1

[12] = system: SNU-449 (Hepatocellular Carcinoma)
How it was run: as §1

[13] = system: SW1573 (Lung Adenocarcinoma)
How it was run: as §1

[14] = system: FTC-133 (Thyroid Gland Carcinoma)
How it was run: as §1

[15] = system: SNU-16 (Gastric Carcinoma)
How it was run: as §1

Structure (SMILES)	combination Emax (BE2-M17 (Neuroblastoma))	combination Emax (BPH-1 (Non-Cancerous))	combination Emax [1]	combination Emax [2]	combination Emax [3]	combination Emax [4]	combination Emax [5]	combination Emax [6]	combination Emax (LOXIMVI (Melanoma))	combination Emax [7]	combination Emax (MPP-89 (Mesothelioma))	combination Emax [8]	combination Emax (NCI-H2722 (Mesothelioma))	combination Emax [9]	combination Emax [10]	combination Emax [11]	combination Emax [12]	combination Emax [13]	combination Emax [14]	combination Emax [15]
CN(C)CCCOc1ccc(-c2ccc3ncc4c(c3c2)n(C2CCOCC2)c(=O)n4C)cn1 [AZD0156] + O=C(c1cc(Cc2n[nH]c(=O)c3ccccc23)ccc1F)N1CCN(C(=O)C2CC2)CC1 [Olaparib] (first compound max 3 µM, partner max 3 µM)	0.331	0.512	0.352	0.435	0.038	0.131	0.16	0.206	0.377	0.228	0.235	0.233	0.181	0.496	0.0996	0.45	0.0695	0.162	–	–
C=CCn1c(=O)c2cnc(Nc3ccc(N4CCN(C)CC4)cc3)nc2n1-c1cccc(C(C)(C)O)n1 [AZD1775] + C1CN(CCC1(C(=O)N[C@@H](CCO)C2=CC=C(C=C2)Cl)N)C3=NC=NC4=C3C=CN4 [Capivasertib] (first compound max 3 µM, partner max 3 µM)	0.906	0.929	0.929	0.92	0.567	0.877	0.471	0.804	0.793	0.869	0.685	0.765	0.262	0.847	0.389	0.572	0.271	0.572	–	–
CN(CCO)CC[C@H](CSc1ccccc1)Nc1ccc(S(=O)(=O)NC(=O)c2ccc(N3CCC([C@@H](O)c4ccccc4-c4ccc(Cl)cc4)CC3)cc2)cc1S(=O)(=O)C(F)(F)F [AZD4320] + C1CN(CCC1(C(=O)N[C@@H](CCO)C2=CC=C(C=C2)Cl)N)C3=NC=NC4=C3C=CN4 [Capivasertib] (first compound max 1 µM, 7x7, partner max 3 µM)	0.374	0.562	0.363	0.414	0.417	0.0628	0.197	0.218	0.202	0.311	0.198	0.142	0.22	0.765	0.0773	0.17	0.0999	0.296	0.517	0.27
CN(CCO)CC[C@H](CSc1ccccc1)Nc1ccc(S(=O)(=O)NC(=O)c2ccc(N3CCC([C@@H](O)c4ccccc4-c4ccc(Cl)cc4)CC3)cc2)cc1S(=O)(=O)C(F)(F)F [AZD4320] + C=CCn1c(=O)c2cnc(Nc3ccc(N4CCN(C)CC4)cc3)nc2n1-c1cccc(C(C)(C)O)n1 [AZD1775] (first compound max 1 µM, partner max 1 µM)	0.92	0.709	0.859	0.684	0.802	0.722	0.729	0.889	0.691	0.739	0.628	0.57	0.55	0.952	0.165	0.357	0.138	0.698	0.919	0.917
CN(CCO)CC[C@H](CSc1ccccc1)Nc1ccc(S(=O)(=O)NC(=O)c2ccc(N3CCC([C@@H](O)c4ccccc4-c4ccc(Cl)cc4)CC3)cc2)cc1S(=O)(=O)C(F)(F)F [AZD4320] + CCN(CCO)CCCOc1ccc2c(Nc3cc(CC(=O)Nc4cccc(F)c4)[nH]n3)ncnc2c1 [AZD2811] (first compound max 1 µM, 7x7, partner max 1 µM)	0.64	0.893	0.853	0.825	0.348	0.192	0.219	0.122	0.443	0.538	0.526	0.248	0.401	0.995	0.117	–	0.154	0.62	0.681	0.747
CN(CCO)CC[C@H](CSc1ccccc1)Nc1ccc(S(=O)(=O)NC(=O)c2ccc(N3CCC([C@@H](O)c4ccccc4-c4ccc(Cl)cc4)CC3)cc2)cc1S(=O)(=O)C(F)(F)F [AZD4320] + CN(C)CCCOc1ccc(-c2ccc3ncc4c(c3c2)n(C2CCOCC2)c(=O)n4C)cn1 [AZD0156] (first compound max 1 µM, 7x7, partner max 1 µM)	0.258	0.474	0.198	0.168	0.274	0.0679	0.154	0.0987	0.366	0.391	0.236	0.313	0.285	0.814	0.153	0.164	0.15	0.128	0.44	0.322
